The source made the active and inactive calls. No cut-off for these calls is given here.
What was measured:
HCT-116 = experiment: Cytotoxicity against human HCT116 cells by MTT assay; format: functional, cell-based
[1] = Induction of apoptosis in human CLL cells by 3,3'-dihexyloxacarbocyanine iodide staining-based flow cytometry; format: functional, cell-based
B-CLL [2] = experiment: Inhibition of spliceosome-mediated splicing of DNAJB1 gene in human B-CLL cells at 0.1 uM after 4 hrs by RT-PCR analysis; format: cell-based
B-CLL [3] = experiment: Inhibition of spliceosome-mediated splicing of DNAJB1 gene in human B-CLL cells at 10 uM after 4 hrs by RT-PCR analysis; format: cell-based
B-CLL [4] = experiment: Inhibition of spliceosome-mediated splicing of DNAJB1 gene in human B-CLL cells at 0.1 to 1.0 uM after 4 hrs by RT-PCR analysis; format: cell-based

SMILES	IC50 (HCT-116) [µM]	IC50 [1] [µM]	further results
CC[C@H](OC)[C@@H](C)[C@H]1O[C@@H]1[C@H](O)[C@H](C)/C=C/C=C(\C)[C@H]1OC(=O)C[C@H](O)CC[C@@](C)(O)[C@@H](OC(C)=O)/C=C/[C@@H]1C	0.0235	0.0021	Activity (B-CLL [2]): Active
Nc1nc(F)nc2c1ncn2[C@@H]1O[C@H](CO)[C@@H](O)[C@@H]1O	–	–	Activity (B-CLL [3]): inactive
CC[C@H](OC)[C@@H](C)[C@H]1O[C@@H]1[C@@H](O)[C@H](C)/C=C/C=C(\C)[C@H]1OC(=O)C[C@H](O)CCCC/C=C/[C@@H]1C	> 50	–	–
CC[C@H](OC)[C@@H](C)[C@H]1O[C@@H]1[C@@H](O)[C@H](C)/C=C/C=C(\C)[C@H]1OC(=O)C[C@H](O)CC[C@@](C)(O)[C@@H](OC(C)=O)/C=C/[C@@H]1C	0.0008	–	–
CC[C@H](OC)[C@@H](C)[C@H]1O[C@@H]1[C@H](OC(C)=O)[C@H](C)/C=C/C=C(\C)[C@H]1OC(=O)C[C@H](O)CC[C@@](C)(O)[C@@H](OC(C)=O)/C=C/[C@@H]1C	0.142	–	–
CC[C@H](O)[C@@H](C)[C@H]1O[C@@H]1C[C@H](C)/C=C/C=C(\C)[C@H]1OC(=O)C[C@H](O)CC[C@@](C)(O)[C@@H](OC(C)=O)CC[C@@H]1C [PLADIENOLIDE B]	0.0248	0.0305	Activity (B-CLL [2]): Active
CC[C@H](OC)[C@@H](C)[C@H]1O[C@@H]1[C@H](O)[C@@H](C)/C=C/C=C(\C)[C@H]1OC(=O)C[C@H](O)CC[C@@](C)(O)[C@@H](OC(C)=O)/C=C/[C@@H]1C	0.0037	0.109	–
CC[C@H](OC)[C@@H](C)[C@H]1O[C@@H]1[C@@H](O)[C@@H](C)/C=C/C=C(\C)[C@H]1OC(=O)C[C@H](O)CC[C@@](C)(O)[C@@H](OC(C)=O)/C=C/[C@@H]1C	0.023	> 50	–
CC[C@H](O)[C@@H](C)[C@H]1O[C@@H]1C[C@H](C)/C=C/C=C(\C)[C@H]1OC(=O)CCCCCC/C=C/[C@@H]1C	> 50	–	–
CC[C@H](OC)[C@@H](C)[C@H]1O[C@@H]1[C@H](OC(C)=O)[C@H](C)/C=C/C=C(\C)[C@H]1OC(=O)C[C@H](OC(C)=O)CC[C@@](C)(O)[C@@H](OC(C)=O)/C=C/[C@@H]1C	0.542	–	–
CC[C@H](OC)[C@@H](C)[C@H]1O[C@@H]1[C@@H](O)[C@H](C)/C=C/C=C(\C)[C@H]1OC(=O)CCCCCC/C=C/[C@@H]1C	> 50	–	–
CC[C@H](O)[C@@H](C)[C@H]1O[C@@H]1C[C@H](C)/C=C/C=C(\C)[C@H]1OC(=O)CCCCCC/C=C/[C@H]1C	> 50	–	–
CC[C@H](OC)[C@@H](C)[C@H]1C[C@@H]1[C@@H](O)[C@@H](C)/C=C/C=C(\C)[C@H]1OC(=O)C[C@H](O)CC[C@@](C)(O)[C@@H](OC(C)=O)/C=C/[C@@H]1C	0.0823	–	–
CC[C@H](OC)[C@@H](C)[C@H]1C[C@@H]1[C@@H](O)[C@H](C)/C=C/C=C(\C)[C@H]1OC(=O)C[C@H](O)CC[C@@](C)(O)[C@@H](OC(C)=O)/C=C/[C@@H]1C	0.0429	0.103	Activity (B-CLL [2]): Active; Activity (B-CLL [4]): Active

Source: ChEMBL document CHEMBL2417526, “Stabilized cyclopropane analogs of the splicing inhibitor FD-895” (J Med Chem, 2013)
